Reference: patent US8350015B2, “Cyanine dye” (Kabushiki Kaisha Hayashibara Seibutsu Kagaku Kenkyujo, priority 2004, dated 2013)

Assay: Optical resistance of cyanine dye thin membrane exposed to xenon lamp
Format: physicochemical
Conditions: xenon lamp 180 W/m^2, exposure 5.5 hours
Protocol: The resulting solution was poured dropwise on one side of a polished glass plate (5 cm×5 cm) and homogenously spread over the surface of the plate by turning the plate at 1,000 rpm for one minute. Successively, thin membrane of the cyanine dye in this invention was formed on the glass plate by drying in the ventilation of warm and cooled air in this order. Immediately after determining optical transmittance (T0) of the cyanine dye in the form of thin membrane at absorption maximum (about 450 nm) wavelength, the membrane was exposed to xenon lamp (light-irradiation energy of 180 W/m^2 on the plate surface) in the ventilation of cooled air while placing […] xenon lamp with a prescribed distance away from the glass plate, after which the membrane was immediately determined for optical transmittance (T) at absorption maximum wavelength. Thereafter, residual dye rate (%) was calculated by substituting the obtained optical transmittances (T and T0) to Formula 1. In parallel, another thin membrane formed by cyanine dye represented by Chemical Formula 14 (Control 1), a additional thin membrane formed by cyanine dye represented by Chemical Formula 16 (Control 2), a further thin membrane formed by cyanine dye represented by Chemical Formula 14 and an equimolar azometallic complex represented by Chemical Formula 15 as an optical resistance-improving agent (Control 3), and one more additional thin membrane formed by cyanine dye represented by Chemical Formula 16 and an equimolar azometallic complex represented by Chemical Formula 15 as an optical resistance-improving agent (Control 4) were determined for optical resistance similarly as above.

[1] = thin membrane on glass plate, no optical resistance-improving agent, transmittance at absorption maximum (about 450 nm)
[2] = thin membrane with equimolar azometallic complex Chemical Formula 15 as optical resistance-improving agent

Residual dye rate (%) [1] [%] | Residual dye rate (%) [2] [%] | Compound
29.3 | 91.7 | CN1C(=CC2=[N+](C)c3ccccc3C2(C)C)C(C)(C)c2ccccc21 [Chemical Formula 14]
30.1 | 92.2 | CN1C(=CC2=[N+](C)c3ccc4ccccc4c3C2(C)C)C(C)(C)c2c1ccc1ccccc21 [Chemical Formula 16]
